These results are taken from patent US6201006A, “Aromatic amidine derivatives useful as selective thrombin inhibitors” (C & C Research Laboratories, priority 1996, dated 2001).

One assay addresses T1, human thrombin (Homo sapiens, UniProt P00734).
T1 construct: purchased Sigma T-6759
Nature of the assay: Inhibitory activity for thrombin (chromogenic substrate hydrolysis, 405 nm). In kind it is biochemical. Particulars: for Selectivity (trypsin/thrombin): IC50 for trypsin divided by IC50 for thrombin; for IC50: human thrombin, 20 min, pH 8.0, N-benzoyl-Phe-Val-Arg-p-nitroanilide. In outline:
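Thrombin: human enzyme (5 units/ml stock, 0.1% BSA) acted for 20 min on N-benzoyl-Phe-Val-Arg-p-nitroanilide in 125 mM NaCl, 50 mM Tris-HCl pH 8.0, with compounds dissolved in 50% methanol. Hydrolysis was read at 405 nm. Selectivity index was trypsin IC50 divided by thrombin IC50.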

The test system of a further assay is trypsin. The assay is described as follows: Inhibitory activity for trypsin. Type of assay: biochemical.
The test system of assay [1] is thrombin time (TT) in rat plasma. Nature of the assay: Thrombin time (TT) in rat plasma after oral administration. In kind it is in vivo, SD male rats. The following applies: TT after / TT before administration. On the procedure:
SD male rats weighing 220±20 g which had fasted overnight were used as experimental animals. Blood taken from the hearts of the experimental animals just before administration of the test compound and at 30, 60, 120 and 240 minutes after oral administration of the test compound was mixed with 0.108M sodium citrate in the ratio of 9:1. The mixtures thereby obtained were centrifuged at 15,000 rpm for 5 minutes at 4° C. to separate the plasma, which was stored at -20° C. until the TT was measured by means of the method described below.
200 μl of Owren's buffer was added to 50 μl of the plasma and 100 μl of the diluted plasma thereby obtained was injected into the vial of a coagulometer and then incubated for 2 minutes at 37° C. To each vial was added 100 μl of thrombin at a concentration of 20 U/ml, which had prewarmed at 37° C., to measure the time (TT) until clotting occurred. The ratio of the TT in rat plasma after administration of the test compound to the TT in rat plasma before administration of the test compound was calculated.

As usually defined, the IC50 is the concentration at which inhibition is half-maximal. With `CCn1c(CC[C@@H]2CCCN2C(=O)[C@H]2CCCN2C(=O)CCN)cc2ccc(C(=N)N)cc21` [Compound 155, 1-ethyl-2-[2-[(S)-1-[[(R)-1-(3-aminopropanoyl)pyrrolidin-2-yl]carbonyl]pyrrolidin-2-yl]ethyl]indole-6-carboxamidine], on human thrombin, the “Selectivity (trypsin/thrombin)” value was found to be 24.7. Besides, the IC50 against human thrombin was 11.6 nM; in the assay with trypsin, 287 nM. Moreover, the figures for the “Plasma TT ratio after administration to rat” value (“Plasma TT ratio” below) in assay [1] (50 mg/kg oral) and in assay [1] (100 mg/kg oral) were 3.93 and 7.36, respectively.

As for `CCn1c(CC[C@@H]2CCCN2C(=O)[C@H]2CCCN2C(=O)C[C@H](N)C(N)=O)cc2ccc(C(=N)N)cc21` [Compound 160, 1-ethyl-2-[2-[(S)-1-[[(R)-1-((S)-3-amino-3-carbamoylpropanoyl)pyrrolidin-2-yl]carbonyl]pyrrolidin-2-yl]ethyl]indole-6-carboxamidine], the “Selectivity (trypsin/thrombin)” value at human thrombin amounted to 25.0. Also, the IC50 at human thrombin is 15.3 nM; in the assay with trypsin, 382 nM. The “Plasma TT ratio” value in assay [1] (50 mg/kg oral) amounted to 2.30.

In the case of `CCOC(=O)CN1CCC[C@@H]1C(=O)N1CCC[C@H]1CCc1cc2ccc(C(=N)N)cc2n1CC` [Compound 86, ethyl 2-[(R)-2-[[(S)-2-[2-(6-amidino-1-ethylindol-2-yl)ethyl]pyrrolidinyl]carbonyl]pyrrolidinyl]acetate], the “Selectivity (trypsin/thrombin)” value on human thrombin came out at 25.0. Moreover, 27 nM corresponded to half-maximal inhibition at human thrombin (IC50). In addition, the “Plasma TT ratio” value worked out at 1.49 in assay [1] (30 mg/kg oral), 4.51 in assay [1] (50 mg/kg oral) and 5.19 in assay [1] (100 mg/kg oral).

For the compound `CCn1c(CC[C@@H]2CCCN2C(=O)[C@H]2CCCN2C(C)=O)cc2ccc(C(=N)N)cc21` [Compound 171, 1-ethyl-2-[2-[(S)-1-[((R)-1-acetyl-pyrrolidin-2-yl)carbonyl]pyrrolidin-2-yl]ethyl]indole-6-carboxamidine], on human thrombin, the “Selectivity (trypsin/thrombin)” value is 35.1 and inhibition was half-maximal at 10.6 nM (IC50). This compound also came in with an IC50 in the assay on trypsin of 373 nM. In addition, the “Plasma TT ratio” value in assay [1] (100 mg/kg oral) came out at 4.23.
